Structures can show the parent of a compound that is named as a salt.
Assays:
[1] = test system: isoprenaline-induced acceleration in heart rate (anti-β effect); assay: Antiadrenergic properties: anti-β effect (reduction of isoprenaline-induced tachycardia); type: in vivo; parameters: key to anti-β effect: +: for a reduction < 50%; ++: for a reduction ≥ 50%; +++: for a reduction sub-total (almost complete reduction); details: dog; for inhibition in vivo at 0.5 mg/kg: 0.5 mg/kg i.v.; for inhibition in vivo at 3 mg/kg: 3 mg/kg i.v.
Procedure: The object of this test is to determine the capacity of the compounds of the invention for reducing the increase in epinephrine-induced increase in blood-pressure (anti-α effect) and the isoprenaline-induced acceleration in heart rate (anti-β effect), in dogs previously anaesthatized with pentobarbital and atropinized. For each dog, the dose of epinephrine (between 3 and 10 μg/kg) which induced a reproducible increase in the blood-pressure of approximately 133×10^2 Pa and the dose of isoprenaline (1 to 2 μg/kg) which induced a reproducible increase in the heart rate of approximately 70 beats/min. were first determined. The dose of epinephrine and of isoprenaline, determined in this manner, were injected alternately every ten minutes and, after two successive reference responses had been obtained, an amount of the test compound was administered intravenously. The percentage reduction in the acceleration of the heart rate induced by the test compound compared with the reference tachycardia measured previously (approximately 70 beats) was recorded. In both cases, the results of the reduction in blood-pressure or in the heart rate have been expressed as follows: […]

[2] = test system: epinephrine-induced increase in blood-pressure (anti-α effect); assay: Antiadrenergic properties: anti-α effect (reduction of epinephrine-induced hypertension); type: in vivo; parameters: key to anti-α effect: +: for a reduction < 50%; ++: for a reduction ≥ 50%; +++: for a reduction sub-total (almost complete reduction); details: dog
Procedure: The object of this test is to determine the capacity of the compounds of the invention for reducing the increase in epinephrine-induced increase in blood-pressure (anti-α effect) and the isoprenaline-induced acceleration in heart rate (anti-β effect), in dogs previously anaesthatized with pentobarbital and atropinized. For each dog, the dose of epinephrine (between 3 and 10 μg/kg) which induced a reproducible increase in the blood-pressure of approximately 133×10^2 Pa and the dose of isoprenaline (1 to 2 μg/kg) which induced a reproducible increase in the heart rate of approximately 70 beats/min. were first determined. The dose of epinephrine and of isoprenaline, determined in this manner, were injected alternately every ten minutes and, after two successive reference responses had been obtained, an amount of the test compound was administered intravenously. The percentage reduction in the hypertension induced by the test compound compared with the reference hypertension previously obtained (approximately 100 mm Hg) was recorded. In both cases, the results of the reduction in blood-pressure or in the heart rate have been expressed as follows: […]

isolated rat aorta = assay: Calcium inhibitory properties: contractile response to potassium-induced depolarization on isolated rat aorta; parameters: species or system isolated organ, male Wistar rats; details: for activity at 1 µM / activity at 0.1 µM / activity at 0.01 µM / activity at 0.001 µM: Rattus norvegicus, 1 h, read-out: % of the maximum contractional effect; for activity at 1 µM: 10^-6 M; for activity at 0.1 µM: 10^-7 M; for activity at 0.01 µM: 10^-8 M; for activity at 0.001 µM: 10^-9 M
Method in brief: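 Male Wistar rat aorta strips under 2 g tension in modified Krebs-bicarbonate at 37° C, gassed with CO2/O2; contraction induced by 100 mM KCl potassium-Krebs. Compound incubated 60 min before repeat K+ depolarization; response expressed as % of maximum contraction before compound.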

[3] = Canis lupus familiaris, iv, 0.1 mg/kg i.v.
[4] = Canis lupus familiaris, iv, 0.12 mg/kg i.v.
[5] = Canis lupus familiaris, iv, 11.2 mg/kg i.v.
[6] = Canis lupus familiaris, iv, 5 mg/kg i.v.
[7] = Canis lupus familiaris, iv, 10 mg/kg i.v., known compounds

In the case of `COc1ccc(CCN(C)CCCOc2ccc(S(=O)(=O)c3c(C(C)C)nn4ccccc34)cc2)cc1OC` [Ex. 71, 2-isopropyl-3-[4-{3-[N-methyl-N-(3,4-dimethoxy-β-phenethyl)amino]propyloxy}benzenesulphonyl]pyrazolo(1,5-a]pyridine oxalate], the inhibition in vivo at 0.13 mg/kg ([1]; Canis lupus familiaris, iv, 0.13 mg/kg i.v.) is reported as at least 50%, the anti-α effect ([2]; 0.13 mg/kg i.v.) is reported as “+++” and the activity at 1 µM (isolated rat aorta) is reported as 0%. For the same compound, the activity at 0.1 µM (isolated rat aorta) was 15.1%, the activity at 0.01 µM (isolated rat aorta) was 67.1% and the activity at 0.001 µM (isolated rat aorta) was 84.9%.
`CCCCCN(CCCCC)CCCOc1ccc(S(=O)(=O)c2c(CC)cn3ccccc23)cc1.Cl` [Ex. 26, 2-Ethyl-1-{4-[3-(di-n-pentylamino)propyloxy}benzenesulphonyl}indolizine hydrochloride] was tested, and the inhibition in vivo at 0.5 mg/kg ([1]; Canis lupus familiaris, iv) was at least 50%, the anti-α effect ([2]; 0.5 mg/kg i.v.) was “+++” and the activity at 0.1 µM (isolated rat aorta) was 42.9%. The activity at 0.01 µM (isolated rat aorta) was 82.9%.
With `CCCCNCCCOc1ccc(S(=O)(=O)c2c(CC)cn3ccccc23)cc1.O=C(O)C(=O)O` [Ex. 21, 2-Ethyl-1-{4-[3-(n-butylamino)propyloxy]benzenesulphonyl}indolizine oxalate] the anti-β effect ([1]; 5 mg/kg i.v.) was “+++”, the anti-α effect ([2]; 5 mg/kg i.v.) was “+++” and the activity at 1 µM (isolated rat aorta) was 8.3%. It also gave an activity at 0.1 µM (isolated rat aorta) of 74.7%.
For `CCCCN(CCCOc1ccc(S(=O)(=O)c2c(C(C)C)cn3ccccc23)cc1)CCc1ccc(OC)c(OC)c1` [Ex. 45, 2-Isopropyl-1-[4-{3-[N-n-butyl-N-(3,4-dimethoxy-β-phenethyl)amino]propyloxy}benzenesulphonyl]indolizine acid oxalate], the inhibition in vivo at 0.1 mg/kg [1, 3] was at least 50%, the inhibition in vivo at 0.1 mg/kg [2, 3] was at least 50% and the activity at 0.1 µM (isolated rat aorta) was 18.7%. It also gave an activity at 0.01 µM (isolated rat aorta) of 62.3% and an activity at 0.001 µM (isolated rat aorta) of 80.7%.
`COc1ccc(CCN(C)CCCOc2ccc(S(=O)(=O)C3=C(C(C)C)OCC3)cc2)cc1OC` [Ex. 73, 2-isopropyl-3-[4-{3-[N-methyl-N-(3,4-dimethoxy-β-phenethyl)amino]propyloxy}benzenesulphonyl]-4,5-dihydro-furan oxalate] was tested, and the inhibition in vivo at 3 mg/kg ([1]; Canis lupus familiaris, iv) was at least 50%, the anti-α effect ([2]; 3 mg/kg i.v.) was “+++” and the activity at 1 µM (isolated rat aorta) was 8.2%. For the same compound, the activity at 0.1 µM (isolated rat aorta) was 66.7% and the activity at 0.01 µM (isolated rat aorta) was 78.3%.
`COc1ccc(CNCCCOc2ccc(S(=O)(=O)c3c(C(C)C)cn4ccccc34)cc2)cc1OC` [Ex. 43, 2-Isopropyl-1-{4-[3-(3,4-dimethoxybenzylamino)propyloxy]benzenesulphonyl}indolizine] was tested, and the anti-β effect ([1]; 0.2 mg/kg i.v.) was “+++”, the anti-α effect ([2]; 0.2 mg/kg i.v.) was “+++” and the activity at 0.1 µM (isolated rat aorta) was 9.7%. It also gave an activity at 0.01 µM (isolated rat aorta) of 58.4% and an activity at 0.001 µM (isolated rat aorta) of 88.7%.
Compound `CCCCN(CCCC)CCCOc1ccc(S(=O)(=O)c2c(C(C)C)nn3ccccc23)cc1` [Ex. 70, 2-isopropyl-3-{4-[3-(di-n-butylamino)propyloxy]benzenesulphonyl}pyrazolo[1,5-a]pyridine oxalate] has an inhibition in vivo at 0.12 mg/kg [1, 4] of under 50%, an inhibition in vivo at 0.12 mg/kg [2, 4] of at least 50% and an activity at 1 µM (isolated rat aorta) of 0%. For the same compound, the activity at 0.1 µM (isolated rat aorta) was 18.9% and the activity at 0.01 µM (isolated rat aorta) was 83%.
In the case of `CCCCN(C)CCCOc1ccc(S(=O)(=O)c2c(CC)cn3ccccc23)cc1.O=C(O)C(=O)O` [Ex. 20, 2-Ethyl-1-{4-[3-(N-methyl-N-butylamino)propyloxy]benzenesulphonyl}indolizine oxalate], the anti-β effect ([1]; 5 mg/kg i.v.) is reported as “+++”, the anti-α effect ([2]; 5 mg/kg i.v.) is reported as “+++” and the activity at 1 µM (isolated rat aorta) is reported as 6.8%. The activity at 0.1 µM (isolated rat aorta) was 60%.
With `COc1ccc(CCN(C)CCCOc2ccc(S(=O)(=O)c3ccoc3C(C)C)cc2)cc1OC` [Ex. 77, 2-isopropyl-3-[4-{3-[N-methyl-N-(3,4-dimethoxy-β-phenethyl)amino]propyloxy}benzenesulphonyl]furan oxalate] the inhibition in vivo at 3 mg/kg ([1]; Canis lupus familiaris, iv) was at least 50%, the anti-α effect ([2]; 3 mg/kg i.v.) was “+++” and the activity at 0.1 µM (isolated rat aorta) was 43.2%. The activity at 0.01 µM (isolated rat aorta) was 86% and the activity at 0.001 µM (isolated rat aorta) was 89.8%.
For `CCCN(CCC)CCCOc1ccc(S(=O)(=O)c2c(C(C)C)cn3ccccc23)cc1` [Ex. 17, 2-Isopropyl-1-{4-[3-(di-n-propylamino)propyloxy]benzenesulphonyl}indolizineoxalate], the inhibition in vivo at 1.3 mg/kg ([1]; Canis lupus familiaris, iv, 1.3 mg/kg i.v.) was at least 50%, the anti-α effect ([2]; 1.3 mg/kg i.v.) was “+++” and the activity at 1 µM (isolated rat aorta) was 7.4%. The activity at 0.1 µM (isolated rat aorta) was 50.4%.
`COc1ccc(CCN(C)CCCOc2ccc(S(=O)(=O)c3ccccn3)cc2)cc1OC` [Ex. 59, 2-[4-{3-[N-methyl-N-(3,4-dimethoxy-β-phenethyl)amino]propyloxy}benzenesulphonyl]pyridine oxalate] gave an inhibition in vivo at 11.2 mg/kg [1, 5] of at least 50%, an inhibition in vivo at 11.2 mg/kg [2, 5] of at least 50% and an activity at 1 µM (isolated rat aorta) of 81.7%. For the same compound, the activity at 0.1 µM (isolated rat aorta) was 87.5% and the “% of the maximum contractional effect” value (isolated rat aorta; head printed "10^-" (exponent missing; first of three columns before 10^-6 M), 60 min) was 33.3%.
In the case of `CCN(CC)CCCOc1ccc(S(=O)(=O)c2c(C(C)C)cn3ccccc23)cc1` [Ex. 15, 2-Isopropyl-1-{4-[3-(diethylamino)propyloxy]benzenesulphonyl}indolizine], the anti-β effect ([1]; 2.5 mg/kg i.v.) is reported as “+++”, the anti-α effect ([2]; 2.5 mg/kg i.v.) is reported as “+++” and the activity at 1 µM (isolated rat aorta) is reported as 18.4%. The activity at 0.1 µM (isolated rat aorta) was 71.2%.
For `CCCCc1cn2ccccc2c1S(=O)(=O)c1ccc(OCCCNC(C)(C)C)cc1.O=C(O)C(=O)O` [Ex. 29, 2-n-Butyl-1-{4-[3-(tert-butylamino)propyloxy]benzenesulphonyl}indolizine oxalate], the inhibition in vivo at 5 mg/kg [1, 6] was at least 50%, the anti-α effect ([2]; 5 mg/kg i.v.) was “+++” and the activity at 1 µM (isolated rat aorta) was 30.7%.
In the case of `CCCCc1cn2ccccc2c1S(=O)(=O)c1ccc(OCCCN(CCC)CCC)cc1.O=C(O)C(=O)O` [Ex. 12, 2-n-Butyl-1-{4-[3-(di-n-propylamino)propyloxy]benzenesulphonyl}indolizine oxalate], the anti-β effect ([1]; 5 mg/kg i.v.) is reported as “+++”, the inhibition in vivo at 5 mg/kg [2, 6] is reported as at least 50% and the activity at 1 µM (isolated rat aorta) is reported as 36.3%.
For `COc1ccc(CCN(C)CCCCOc2ccc(S(=O)(=O)c3c(C(C)C)cn4ccccc34)cc2)cc1OC` [Ex. 42, 2-Isopropyl-1-[4-{4-[N-methyl-N-(3,4-dimethoxy-β-phenethyl)amino]butyloxy]benzenesulphonyl]indolizine], the anti-β effect ([1]; 0.1 mg/kg i.v.) was “+++”, the anti-α effect ([2]; 0.1 mg/kg i.v.) was “+++” and the activity at 0.1 µM (isolated rat aorta) was 21.1%. It also gave an activity at 0.01 µM (isolated rat aorta) of 53.9% and an activity at 0.001 µM (isolated rat aorta) of 78.8%.
`CCCCN(CCCC)CCCOc1ccc(S(=O)(=O)c2cc3ccccc3nc2C(C)C)cc1.O=C(O)C(=O)O` [Ex. 74, 2-isopropyl-3-{4-[3-(di-n-butylamino)propyloxy]benzenesulphonyl}quinoline oxalate] was tested, and the inhibition in vivo at 1.2 mg/kg ([1]; Canis lupus familiaris, iv, 1.2 mg/kg i.v.) was under 50%, the anti-α effect ([2]; 1.2 mg/kg i.v.) was “+++” and the activity at 1 µM (isolated rat aorta) was 22.4%. It also gave an activity at 0.1 µM (isolated rat aorta) of 67.3%.
`CCCCN(CCCC)CCCOc1ccc(S(=O)(=O)c2c(CC)cn3ccccc23)cc1` [Ex. 8, 2-Ethyl-1-{4-[3-(di-n-butylamino)propyloxy]benzenesulphonyl}indolizine hydrochloride] showed an inhibition in vivo at 0.5 mg/kg ([1]; Canis lupus familiaris, iv) of under 50%, an inhibition in vivo at 0.5 mg/kg ([2]; Canis lupus familiaris, iv, 0.5 mg/kg i.v.) of at least 50% and an activity at 0.1 µM (isolated rat aorta) of 30.9%.
For `CCCCN(CCCC)CCCOc1c(C)cc(C(=O)c2c(CC)cn3ccccc23)cc1C` [Compound D, reference compound], the inhibition in vivo at 10 mg/kg [1, 7] was under 50%, the inhibition in vivo at 10 mg/kg [2, 7] was under 50% and the activity at 1 µM (isolated rat aorta) was 19.3%. The activity at 0.1 µM (isolated rat aorta) was 64.7%.
In the case of `COc1cc(CCN(C)CCCOc2ccc(S(=O)(=O)c3c(C(C)C)c4ccccc4n3C)cc2)cc(OC)c1` [Ex. 146, 1-methyl-3-isopropyl-2-[4-{3-[N-methyl-N-(3,5-dimethoxy-β-phenethyl)amino]propyloxy}benzenesulphonyl]indole acid oxalate], the inhibition in vivo at 0.07 mg/kg ([1]; Canis lupus familiaris, iv, 0.07 mg/kg i.v.) is reported as at least 50% and the anti-α effect ([2]; 0.07 mg/kg i.v.) is reported as “+++”.

Reference: patent publication US5147878A, “Aminoalkoxyphenyl derivatives, process of preparation and compositions containing the same” (Sanofi, priority 1986, dated 1992)
